According to patent publication US9051248B2, “Methods, compounds, and compositions for delivering 1,3-propanedisulfonic acid” (BHI Limited Partnership, priority 2009, dated 2015):

Key:
[1] = Water stability (conversion of prodrug to 1,3PDS); type: physicochemical; settings: deionized water; for Conversion to 1,3PDS (%) 1 h / Conversion to 1,3PDS (%) 2 h: 37° C.; for Conversion to 1,3PDS (%) 0 h / Conversion to 1,3PDS (%) 24 h: room temperature; for Conversion to 1,3PDS (%) 0 h: 200 μg/mL
Protocol: The objective of this test was to determine the stability of the prodrugs in simulated gastric fluid (SGF) and water at 37° C. up to 2 hours and in water at room temperature up to 24 hours.
Simulated gastric fluid and water samples were incubated in a shaking water bath at 37° C. for up to 2 hours. The compound (prodrug) was added at Time-point 0. At each selected time point (refer to table), sample aliquots were withdrawn and analyzed to determine the concentration of 1,3-propanedisulfonic acid (1,3PDS). The concentrations of 1,3PDS were calculated based on their respective peak area. The % appearance of 1,3PDS was determined by the amounts of compound determined at each time point compared to nominal concentration (100%) of 1,3PDS generated by 100% of the prodrug (equivalent concentration).
A fresh stock solution at approximately 2 mg/mL of the compound was prepared. One stability solution at 200 μg/mL in the SGF was prepared (sample referred to as Tube A). A stability solution at 200 μg/mL in deionized water was prepared (sample referred to as Tube B). Immediately after preparation, each 200 μg/mL solution was diluted in triplicates to 20 μg/mL in deionized water and analyzed using LC-MS/MS method (Time-point 0). Thereafter, the incubation of tubes A and B was continued in the shaking water bath at 37° C. for 1 and 2 hours while one aliquot of tube B was kept at room temperature for 24 hours. At each specific time point of incubation, 3 aliquots (triplicate) of 50 μL were removed, diluted in 450 μL of water and analyzed using LC-MS/MS method. In parallel, 3 reference samples of 1,3PDS at 100, 10 and 1 μg/mL were prepared, diluted in triplicate in water and injected at the beginning and at the end of the batch. These samples were considered as reference samples.
(§1) The concentrations of 1,3PDS were calculated based on response of the reference samples and their respective peak area response. The % appearance of 1,3PDS was determined by the amounts of compound determined at each time point compared to expected nominal concentration (100%) of 1,3PDS generated by 100% of the prodrug (equivalent concentration).

[2] = In vivo study in ferrets (clinical signs after oral gavage); settings: male ferrets, oral administration, standard dose as printed
Protocol: One group of three male non-naïve ferrets (domestic strain, >16 weeks, >1.2 Kg) were starved for approximately 1.5 h prior to administration of a dosing formulation. Food was given 2 hours post dose. […] The dosing volume was adjusted to 5 mL/kg. Clinical signs were recorded throughout the study period. […] Plasma samples were stored frozen at −80° C. pending transfer to analysis. An aliquot of dosing solution (0.5 mL) was taken prior to dosing and stored frozen at −20° C. pending transfer to analysis. Animals used for multiple studies after a wash out of a minimum twelve day period.

[3] = system: Salmonella typhimurium strains (TA1535, TA1537, TA98, TA100) and Escherichia coli strain WP2 uvrA; assay: Bacterial mutation tests (Ames test); type: cell-based; settings: 1.58 to 5000 μg/plate, pre-incubation version; for Bacterial mutation test result in presence of S9: with S9 mix; for Bacterial mutation test result in absence of S9: without S9 mix
Protocol: Bacterial mutation tests were performed at Charles River Laboratories to evaluate the mutagenic potential of various prodrugs. Salmonella typhimurium strains (TA1535, TA1537, TA98, TA100) and Escherichia coli strain WP2 uvrA were treated with prodrugs at concentrations ranging from 1.58 to 5000 μg/plate in the presence and absence of a supplemented liver fraction (S9 mix) using the pre-incubation version of the bacterial mutation test. All concentrations of each compound were evaluated in triplicate. Bacteria were incubated with standard positive control agents, and the response of the various bacterial strains to these agents confirmed the sensitivity of the test system and the activity of the S9 mix.

[4] = Human whole blood stability; type: in vitro ADME; settings: fresh human whole blood, 37° C., about 100 μg/mL, 0 h
Protocol: The objective of this test was to determine the stability of the prodrugs in fresh human whole blood at different time-points (0, 0.5, 1, 4, 24 hours). Blood samples were incubated in a shaking water bath at 37° C. for up to 24 hours. The compound (prodrug) was added at Time-point 0, and sample aliquots were withdrawn and analyzed at each time point to determine the concentration of 1,3PDS. If possible, the loss of compound was determined by the amounts of compound determined at each time point compared to the amount determined at Time-point 0. To eliminate the conversion due to the matrix, a special Time-point 0 was prepared in pre-extracted blood sample.
Approximately 2.5 mL of whole blood was incubated in a gently shaking water bath at 37° C. for 15 minutes. Two (2) mL of the pre-incubated whole blood were aliquoted in an eppendorf tube. A 100 μL aliquot of blood was removed and 100 μL of the compound Stock Solution was added. The solution was mixed by inversion. This sample was referred to as Tube A. The final concentration of the compound in tube A was approximately at 100 μg/mL. Immediately after mixing, 100 μL of Tube A was aliquotted into 3 different eppendorf tubes. These samples were extracted as described in the “Extraction Procedure” Section. These samples were referred to Time-point 0. Thereafter, the incubation of Tube A was continued in the shaking water bath at 37° C. for 0.5, 1, 4 and 24 hours. At each specific time point of incubation, aliquots (triplicate) of 100 μL were removed and extracted as described in the “Extraction Procedure” Section. To avoid potential further degradation of compound and/or possible degradation products, the aliquot extracts were kept on ice until analysis. After extraction, samples were analyzed using LC-MS/MS method.
A volume of 300 μL of cold-ice acetonitrile was added to a 1.5 mL eppendorf tube and kept on ice until utilization. 100 μL of the sample to be extracted was added and the mix was vortexed (acetonitrile and blood). The sample was centrifuged at 16250×g (13200 rpm on IEC centrifuge with eppendorf rotor) for 5 minutes. A volume of 250 μL of the supernatant was transferred to another tube and evaporated to dryness under a nitrogen stream. The residue was reconstituted with the mobile phase. This sample was then analyzed according to 1,3PDS specific methods.
as §1, with “the nominal concentration” for “response”, “calibration standards” for “reference samples”, “ratio. A linear regression using a weight of 1/x^2 is used to derive the concentration of 1,3PDS.” for “response.”, “to” for “to expected”

CC(C)(C)COS(=O)(=O)CCCS(=O)(=O)[O-].[Na+] [A6(Na)]
Conversion to 1,3PDS (%) 1 h [1]: 1.0% | Conversion to 1,3PDS (%) 2 h [1]: 1.6% | Conversion to 1,3PDS (%) 0 h [1]: 0.4% | Conversion to 1,3PDS (%) 24 h [1]: 1.4%

CC(C)(CNC(=O)[C@H](Cc1ccccc1)NC(=O)OC(C)(C)C)COS(=O)(=O)CCCS(=O)(=O)[O-].[Na+] [A52(K)]
Conversion to 1,3PDS (%) 1 h [1]: 14.6% | Conversion to 1,3PDS (%) 2 h [1]: 18.8% | Conversion to 1,3PDS (%) 0 h [1]: 7.0% | Conversion to 1,3PDS (%) 24 h [1]: 21.3%

CC(OC(=O)NCCC(C)(C)COS(=O)(=O)CCCS(=O)(=O)O)OC(=O)C(C)C (stereo not shown) [Compound A13]
Conversion to 1,3PDS (%) 1 h [1]: 0.0% | Conversion to 1,3PDS (%) 2 h [1]: 0.0% | Conversion to 1,3PDS (%) 0 h [1]: 0.0% | Conversion to 1,3PDS (%) 24 h [1]: 0.0%

CC(C)[C@H](N)C(=O)NCCC(C)(C)COS(=O)(=O)CCCS(=O)(=O)O [Compound A14]
Conversion to 1,3PDS (%) 1 h [1]: 0.4% | Conversion to 1,3PDS (%) 2 h [1]: 1.4% | Conversion to 1,3PDS (%) 0 h [1]: 0.2%

CC(C)(CNC(=O)[C@@H](N)Cc1ccccc1)COS(=O)(=O)CCCS(=O)(=O)O [Compound A51]
Conversion to 1,3PDS (%) 1 h [1]: 14% | Conversion to 1,3PDS (%) 2 h [1]: 18% | Conversion to 1,3PDS (%) 0 h [1]: 13% | Clinical signs / side effects in ferrets [2]: no clinical signs | Bacterial mutation test result in presence of S9 [3]: Negative | Bacterial mutation test result in absence of S9 [3]: Negative

CCOC(=O)C(C)(N)COS(=O)(=O)CCCS(=O)(=O)O (stereo not shown) [Compound A61]
Clinical signs / side effects in ferrets [2]: no clinical signs | Bacterial mutation test result in presence of S9 [3]: Positive | Bacterial mutation test result in absence of S9 [3]: Positive

CC(OC(=O)NCCC(C)(C)COS(=O)(=O)CCCS(=O)(=O)OCC(C)(C)CCNC(=O)OC(C)OC(=O)C(C)C)OC(=O)C(C)C (stereo not shown) [Compound B13]
Conversion to 1,3PDS (%) 1 h [1]: 0.4% | Conversion to 1,3PDS (%) 2 h [1]: 0.4% | Conversion to 1,3PDS (%) 0 h [1]: 0.3%

CC(C)[C@H](N)C(=O)NCCC(C)(C)COS(=O)(=O)CCCS(=O)(=O)OCC(C)(C)CCNC(=O)[C@@H](N)C(C)C [Compound B14]
Conversion to 1,3PDS (%) 1 h [1]: 0.0% | Conversion to 1,3PDS (%) 2 h [1]: 0.0% | Conversion to 1,3PDS (%) 0 h [1]: 0.0%

CC(C)(CCOC(=O)c1ccccc1)COS(=O)(=O)CCCS(=O)(=O)OCC(C)(C)CCOC(=O)c1ccccc1 [Compound B23]
Conversion to 1,3PDS (%) 1 h [1]: 0.0% | Conversion to 1,3PDS (%) 2 h [1]: 0.0% | Conversion to 1,3PDS (%) 0 h [1]: 0.0% | Conversion to 1,3PDS (%) 24 h [1]: 0.0%

CCOC(=O)C(C)(C)COS(=O)(=O)CCCS(=O)(=O)OCC(C)(C)C(=O)OCC [Compound B29]
Clinical signs / side effects in ferrets [2]: no clinical signs | Bacterial mutation test result in presence of S9 [3]: Positive | Bacterial mutation test result in absence of S9 [3]: Negative

CC(C)(COS(=O)(=O)CCCS(=O)(=O)OCC(C)(C)C(=O)OCc1ccccc1)C(=O)OCc1ccccc1 [Compound B30]
Conversion to 1,3PDS (%) 1 h [1]: 0.0% | Conversion to 1,3PDS (%) 2 h [1]: 0.0% | Conversion to 1,3PDS (%) 0 h [1]: 0.0% | Conversion to 1,3PDS (%) 24 h [1]: 0.0% | Conversion to 1,3PDS (% by molar ratio) 0 h [4]: BLLQ

CC(C)(COS(=O)(=O)CCCS(=O)(=O)OCC(C)(C)C(=O)O)C(=O)O [Compound B58]
Clinical signs / side effects in ferrets [2]: vomiting | Bacterial mutation test result in presence of S9 [3]: Positive | Bacterial mutation test result in absence of S9 [3]: Positive

CCOC(=O)C(C)(C)C(C)OS(=O)(=O)CCCS(=O)(=O)OC(C)C(C)(C)C(=O)OCC (stereo not shown) [Compound B68]
Bacterial mutation test result in presence of S9 [3]: Negative | Bacterial mutation test result in absence of S9 [3]: Negative

CCOC(=O)CCC(C)(C)COS(=O)(=O)CCCS(=O)(=O)OCC(C)(C)CCC(=O)OCC [Compound B75]
Clinical signs / side effects in ferrets [2]: 2 out of 3 animals showed abdomen scratching but recovered after 1 h | Bacterial mutation test result in presence of S9 [3]: Negative | Bacterial mutation test result in absence of S9 [3]: Negative

CC1(COS(=O)(=O)CCCS(=O)(=O)OCC2(C)CCOC2=O)CCOC1=O (stereo not shown) [Compound B76]
Clinical signs / side effects in ferrets [2]: no clinical signs | Bacterial mutation test result in presence of S9 [3]: Negative | Bacterial mutation test result in absence of S9 [3]: Negative

CC1(C)COC(=O)C1OS(=O)(=O)CCCS(=O)(=O)OC1C(=O)OCC1(C)C (stereo not shown) [Compound B77]
Clinical signs / side effects in ferrets [2]: no clinical signs | Bacterial mutation test result in presence of S9 [3]: Negative | Bacterial mutation test result in absence of S9 [3]: Negative

CC1(COS(=O)(=O)CCCS(=O)(=O)OCC2(C)CCC(=O)O2)CCC(=O)O1 (stereo not shown) [Compound B78]
Bacterial mutation test result in presence of S9 [3]: Negative | Bacterial mutation test result in absence of S9 [3]: Negative

CCOC(=O)C(OS(=O)(=O)CCCS(=O)(=O)OC(C(=O)OCC)C(C)(C)C)C(C)(C)C (stereo not shown) [Compound B82]
Clinical signs / side effects in ferrets [2]: no clinical signs

CCOC(=O)C(OS(=O)(=O)CCCS(=O)(=O)OC(C(=O)OCC)C(C)C)C(C)C (stereo not shown) [Compound B83]
Clinical signs / side effects in ferrets [2]: no clinical signs | Bacterial mutation test result in presence of S9 [3]: Negative | Bacterial mutation test result in absence of S9 [3]: Negative

O=S1(=O)CCCS(=O)(=O)OCO1 [Compound C2]
Clinical signs / side effects in ferrets [2]: severe toxicity

CC(C)(C)C(=O)OCOS(=O)(=O)CCCS(=O)(=O)OCOC(=O)C(C)(C)C [Compound D1]
Clinical signs / side effects in ferrets [2]: green face

CCCC(=O)OCOS(=O)(=O)CCCS(=O)(=O)OCOC(=O)CCC [Compound D3]
Clinical signs / side effects in ferrets [2]: abdominal contracting and/or vomiting

O=C(OCOS(=O)(=O)CCCS(=O)(=O)OCOC(=O)C1CCCCC1)C1CCCCC1 [Compound D5]
Clinical signs / side effects in ferrets [2]: abdominal contracting and/or vomiting

CCC(=O)OCOS(=O)(=O)CCCS(=O)(=O)OCOC(=O)CC [Compound D7]
Clinical signs / side effects in ferrets [2]: abdominal contracting and/or vomiting
